Test results taken from US20200163897A1, “METHODS OF TREATING LIVER DISEASES ASSOCIATED WITH PORTAL TRACT OR PERIPORTAL INFLAMMATION” (The Regents of the University of California, priority 2017, published 2020).

Columns and labels:
[1] = tested on: obese children who had steatosis; conditions: after vitamin E 400-1000 IU/day for 4-10 months, cited from earlier work
tissue transglutaminase = target: T1, tissue transglutaminase (Rattus norvegicus, UniProt Q9WVJ6); conditions: via inhibition of tissue transglutaminase; cited from earlier work
T1 construct: host or cells: liver of CCl4-treated animals (in vivo)
T1 sequence (Q9WVJ6 1-686): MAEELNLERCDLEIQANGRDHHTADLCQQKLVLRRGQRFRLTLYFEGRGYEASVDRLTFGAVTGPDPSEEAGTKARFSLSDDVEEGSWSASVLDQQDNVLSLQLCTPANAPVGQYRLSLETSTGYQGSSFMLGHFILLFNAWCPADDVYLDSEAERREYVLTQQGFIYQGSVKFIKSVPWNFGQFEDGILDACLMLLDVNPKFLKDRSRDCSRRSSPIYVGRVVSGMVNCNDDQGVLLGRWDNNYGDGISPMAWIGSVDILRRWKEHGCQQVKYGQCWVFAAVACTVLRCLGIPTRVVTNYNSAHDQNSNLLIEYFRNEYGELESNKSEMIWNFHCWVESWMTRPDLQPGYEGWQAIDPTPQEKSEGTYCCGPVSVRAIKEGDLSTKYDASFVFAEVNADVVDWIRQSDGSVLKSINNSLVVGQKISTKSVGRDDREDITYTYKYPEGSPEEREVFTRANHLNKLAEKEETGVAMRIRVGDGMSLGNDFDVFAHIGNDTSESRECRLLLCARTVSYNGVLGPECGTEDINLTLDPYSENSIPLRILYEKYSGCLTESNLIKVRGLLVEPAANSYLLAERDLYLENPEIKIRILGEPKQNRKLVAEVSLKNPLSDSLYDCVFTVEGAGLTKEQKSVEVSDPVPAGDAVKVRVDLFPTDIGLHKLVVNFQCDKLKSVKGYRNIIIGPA

in vivo = assay: in vivo; set-up: species or system rats; conditions: rat, 20 mg/kg
Excerpt: Samples were taken from the portal vein (PV) and jugular vena cava (JVC) in rats that were either pre-treated with or naïve to cysteamine therapy.
The portal vein delivers blood, and therefore drug, directly to the liver where it diffuses into the periportal region. The concentration of drug in the periportal region is therefore at a maximum level and is higher than the drug concentration in the hepatic lobular region (which drains into the hepatic central veins and then into the JVC). This is possible because as blood, and therefore drug, traverses through the hepatic lobule away from the portal vein its contents will undergo some degree of first-pass metabolism. It is postulated here, that patients with type 2 pediatric NASH, receiving a greater drug exposure at the site of maximal disease (i.e., periportal region; recall Type 2 NASH is characterized by portal inflammation), are more likely to respond to drug therapy than children with type 1 NASH.

leukocyte cystine = conditions: delivery to the small intestine; cited from earlier work
children with NASH = conditions: cited from earlier work
[2] = tested on: acetaminophen-induced hepatocellular injury; conditions: mice and humans; cited from earlier work
[3] = tested on: obese individuals with NASH; conditions: 4-12 weeks, no reported change in body mass index; cited from earlier work

## vitamin E
[1]; decreased from 104±61 IU/L, P<0.002
  mean AST levels: 33±11 IU/L
[1]; decreased from 175±106 IU/L, P<0.01
  mean ALT levels: 40±26 IU/L

## NCCSSCCN [Cystamine]
Tissue transglutaminase
  liver fibrosis induced by carbon tetrachloride: ameliorate liver fibrosis

## NCCS [cysteamine]
In vivo
  Tmax: 5 to 10 min
Leukocyte cystine
  decrease in leukocyte cystine, time after treatment: within an hour
Children with NASH; children with NASH, 6 and 12 months treatment
  blood liver inflammation markers (ALT, AST, GGT): statistically significant improvement
Children with NASH; placebo controlled 12 month study group
  primary endpoint of improved histology: not achieved
Children with NASH; post-hoc analysis, children <65 kg body weight, placebo controlled 12 month study
  chance of histological improvement compared with the placebo group: 4 fold
[2]
  prevention of acetaminophen-induced hepatocellular injury: effective

## CC(=O)N[C@@H](CS)C(=O)O [N-acetylcysteine]
[3]
  aminotransferase levels and gamma-GT: improvement
